Reference: patent US20200138827A1, “SMALL MOLECULE MODULATORS OF HUMAN STING” (Curadev Pharma Limited, priority 2017, published 2020)

target: T1, WT/R232 STING protein (Homo sapiens, UniProt Q86WV6, H232R); experiment: Luciferase reporter assay in HEK293T-hSTING-Luciferase cells, WT/R232; type: cell-based; conditions: 20 hr stimulation, read-out: R232 Activity (EC50 range)
T1 construct: host or cells: HEK293T
In short: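 Clonal HEK293T cells stably expressing human STING R232 plus an ISRE/ISG54-driven luciferase reporter, 5×10^5 per well, stimulated with compounds for 20 h. Secreted luciferase in supernatant measured by luminescence; […].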

T1 sequence (Q86WV6 whole entry H232R): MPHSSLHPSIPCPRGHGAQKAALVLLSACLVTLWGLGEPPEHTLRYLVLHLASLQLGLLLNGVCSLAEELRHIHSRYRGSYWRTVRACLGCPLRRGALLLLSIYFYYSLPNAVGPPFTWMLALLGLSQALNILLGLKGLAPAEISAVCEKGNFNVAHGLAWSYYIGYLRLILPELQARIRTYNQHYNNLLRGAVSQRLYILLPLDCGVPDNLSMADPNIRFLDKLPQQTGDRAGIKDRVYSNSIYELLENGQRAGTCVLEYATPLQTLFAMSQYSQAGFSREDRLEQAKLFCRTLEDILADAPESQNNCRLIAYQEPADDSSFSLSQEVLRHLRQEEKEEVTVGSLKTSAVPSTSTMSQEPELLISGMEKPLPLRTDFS

SMILES	EC50
O=C(NCc1ccco1)c1ccc2c(c1)N(CC(O)c1ccccc1)CCS2 (centres unmarked) [Example 248, N-(furan-2-ylmethyl)-4-(2-hydroxy-2-phenylethyl)-3,4-dihydro-2H-benzo[b-1,4]thiazine-6-carboxamide]	> 10 µM
O=C(CN1CCSc2ccc(C(=O)NCc3ccco3)cc21)c1ccccc1 [Example 249, N-(furan-2-ylmethyl)-4-(2-oxo-2-phenylethyl)-3,4-dihydro-2H-benzo[b][1,4]thiazine-6-carboxamide]	> 10 µM
O=C(NCc1ccco1)c1ccc2c(c1)N(Cc1ccc(Cl)cc1)CCS2 [Example 250, 4-(4-Chlorobenzyl)-N-(furan-2-ylmethyl)-3,4-dihydro-2H-benzo[b-1,4]thiazine-6-carboxamide]	> 10 µM
O=C(NCc1ccco1)c1ccc2c(c1)N(Cc1ccccc1)CC[S+]2[O-] (centres unmarked) [Example 251, 4-Benzyl-N-(furan-2-ylmethyl)-3,4-dihydro-2H-benzo[b-1,4]thiazine-6-carboxamide 1-oxide]	> 10 µM
O=C(NCc1ccco1)c1ccc2c(c1)N(Cc1ccccc1)CCS2(=O)=O [Example 252, 4-Benzyl-N-(furan-2-ylmethyl)-3,4-dihydro-2H-benzo[b-1,4]thiazine-6-carboxamide 1,1-dioxide]	> 10 µM
O=C(NCc1ccco1)c1ccc2c(c1)N(C(=O)c1ccccc1F)CCS2 [Example 253, 4-(2-Fluorobenzoyl)-N-(furan-2-ylmethyl)-3,4-dihydro-2H-benzo[b-1,4]thiazine-6-carboxamide]	> 10 µM
O=C(NCc1ccco1)c1ccc2c(c1)N(C(=O)c1ccccc1F)CCS2(=O)=O [Example 254, 4-(2-Fluorobenzoyl)-N-(furan-2-ylmethyl)-3,4-dihydro-2H-benzo[b-1,4]thiazine-6-carboxamide 1,1-dioxide]	> 10 µM
O=C(NCc1ccco1)c1ccc2c(c1)N(C(=O)c1ccccc1)CCS2 [Example 255, 4-benzoyl-N-(furan-2-ylmethyl)-3,4-dihydro-2H-benzo[b][1,4]thiazine-6-carboxamide]	> 10 µM
O=C(NCc1ccco1)c1ccc2c(c1)N(C(=O)c1c(F)cccc1Cl)CCS2 [Example 256, 4-(2-chloro-6-fluorobenzoyl)-N-(furan-2-ylmethyl)-3,4-dihydro-2H-benzo[b][1,4]thiazine-6-carboxamide]	> 10 µM
CC1CN(C(=O)Cc2ccccc2)c2cc(C(=O)NCc3c(F)cc(F)cc3F)ccc2S1 (centres unmarked) [Example 259, 2-methyl-4-(2-phenylacetyl)-N-(2,4,6-trifluorobenzyl)-3,4-dihydro-2H-benzo[b][1,4]thiazine-6-carboxamide]	> 10 µM
O=C(NCc1c(F)cc(F)cc1F)c1ccc2c(c1)N(C(=O)c1ccncc1)CCS2 [Example 260, 4-isonicotinoyl-N-(2,4,6-trifluorobenzyl)-3,4-dihydro-2H-benzo[b][1,4]thiazine-6-carboxamide]	> 10 µM
O=C(NCc1c(F)cc(F)cc1F)c1ccc2c(c1)N(S(=O)(=O)c1cc(F)cc(F)c1)CCS2 [Example 262, 4-((1,5-Difluorophenyl)sulfonyl)-N-(2,4,6-trifluorobenzyl)-3,4-dihydro-2H-benzo[b-1,4]thiazine-6-carboxamide]	> 10 µM
O=C(NCc1ccco1)c1ccc2c(c1)N(C(=O)c1ccccc1F)CCO2 [Example 263, 4-(2-fluorobenzoyl)-N-(furan-2-ylmethyl)-3,4-dihydro-2H-benzo[b-1,4]oxazine-6-carboxamide]	> 10 µM
O=C(NCc1c(F)cc(F)cc1F)c1ccc2c(c1)N(C(=O)c1c(F)cccc1Cl)CCO2 [Example 264, 4-(2-chloro-6-fluorobenzoyl)-N-(2,4,6-trifluorobenzyl)-3,4-dihydro-2H-benzo[b-1,4]oxazine-6-carboxamide]	> 10 µM
O=C(NCc1ccco1)c1ccc2c(c1)N(C(=O)c1c(F)cccc1Cl)CCO2 [Example 265, 4-(2-chloro-6-fluorobenzoyl)-N-(furan-2-ylmethyl)-3,4-dihydro-2H-benzo[b-1,4]oxazine-6-carboxamide]	> 10 µM
O=C(NCc1ccco1)c1ccc2c(c1)N(Cc1ccccc1)C(=S)CS2 [Example 266, 4-Benzyl-N-(furan-2-ylmethyl)-3-thioxo-3,4-dihydro-2H-benzo[b-1,4]thiazine-6-carboxamide]	> 10 µM
O=C(NCc1ccco1)c1ccc2c(c1)N(Cc1c(F)cccc1Cl)C(=O)CC2 [Example 268, 1-(2-chloro-6-fluorobenzyl)-N-(furan-2-ylmethyl)-2-oxo-1,2,3,4-tetrahydroquinoline-7-carboxamide]	> 10 µM
O=C(NCc1cc2ccncc2o1)c1ccc2c(c1)N(Cc1cc(F)cc(F)c1)C(=O)CC2 [Example 272, 1-(3,5-difluorobenzyl)-N-(furo[2,3-c]pyridin-2-ylmethyl)-2-oxo-1,2,3,4-tetrahydroquinoline-7-carboxamide]	> 10 µM
O=C(NCc1cc2cnccc2o1)c1ccc2c(c1)N(Cc1cc(F)cc(F)c1)C(=O)CC2 [Example 273, 1-(3,5-difluorobenzyl)-N-(furo[3,2-c]pyridin-2-ylmethyl)-2-oxo-1,2,3,4-tetrahydroquinoline-7-carboxamide]	> 10 µM
O=C(NCc1cc2cccnc2o1)c1ccc2c(c1)N(Cc1cc(F)cc(F)c1)C(=O)CC2 [Example 274, 1-(3,5-difluorobenzyl)-N-(furo[2,3-b]pyridin-2-ylmethyl)-2-oxo-1,2,3,4-tetrahydroquinoline-7-carboxamide]	> 10 µM
O=C(NCc1cc2ncccc2o1)c1ccc2c(c1)N(Cc1cc(F)cc(F)c1)C(=O)CC2 [Example 275, 1-(3,5-difluorobenzyl)-N-(furo[3,2-b]pyridin-2-ylmethyl)-2-oxo-1,2,3,4-tetrahydroquinoline-7-carboxamide]	> 10 µM

The remaining lines, values ahead:

EC50	SMILES
> 10 µM	O=C(NCc1c(F)cc(F)cc1F)c1cnc2c(c1)N(Cc1cc(F)cc(F)c1)C(=O)CO2 [Example 236, 1-(3,5-difluorobenzyl)-2-oxo-N-(2,4,6-trifluorobenzyl)-2,3-dihydro-1H-pyrido[2,3-b-1,4]oxazine-7-carboxamide]
1 to 10 µM	C[C@@H]1Oc2ncc(C(=O)NCc3c(F)cc(F)cc3F)cc2N(Cc2cc(F)cc(F)c2)C1=O [Example 237, (S)-1-(3,5-difluorobenzyl)-3-methyl-2-oxo-N-(2,4,6-trifluorobenzyl)-2,3-dihydro-1H-pyrido[2,3-b-1,4]oxazine-7-carboxamide]
1 to 10 µM	C[C@H]1Oc2ncc(C(=O)NCc3c(F)cc(F)cc3F)cc2N(Cc2cc(F)cc(F)c2)C1=O [Example 238, (R)-1-(3,5-difluorobenzyl)-3-methyl-2-oxo-N-(2,4,6-trifluorobenzyl)-2,3-dihydro-1H-pyrido[2,3-b-1,4]oxazine-7-carboxamide]
> 10 µM	O=C(NCc1c(F)cc(F)cc1F)c1cnc2c(c1)N(Cc1c(F)cccc1Cl)C(=O)CO2 [Example 239, 1-(2-chloro-6-fluorobenzyl)-2-oxo-N-(2,4,6-trifluorobenzyl)-2,3-dihydro-1H-pyrido[2,3-b-1,4]oxazine-7-carboxamide]
1 to 10 µM	CC1Oc2ncc(C(=O)NCc3c(F)cc(F)cc3F)cc2N(Cc2cc(F)cc(F)c2)C1=O (centres unmarked) [Example 240, 1-(3,5-difluorobenzyl)-3-methyl-2-oxo-N-(2,4,6-trifluorobenzyl)-2,3-dihydro-1H-pyrido[2,3-b-1,4]oxazine-7-carboxamide]
1 to 10 µM	C[C@@H]1Oc2ncc(C(=O)NCc3cc4ccccc4o3)cc2N(Cc2cc(F)cc(F)c2)C1=O [Example 241, (S)-N-(benzofuran-2-ylmethyl)-1-(3,5-difluorobenzyl)-3-methyl-2-oxo-2,3-dihydro-1H-pyrido[2,3-b][1,4]oxazine-7-carboxamide]
> 10 µM	CC1Oc2ncc(C(=O)NCc3cccc(C(F)(F)F)c3)cc2N(Cc2c(F)cccc2Cl)C1=O (centres unmarked) [Example 244, 1-(2-chloro-6-fluorobenzyl)-3-methyl-2-oxo-N-(3-(trifluoromethyl)benzyl)-2,3-dihydro-1H-pyrido[2,3-b][1,4]oxazine-7-carboxamide]
> 10 µM	O=C(NCc1ccco1)c1ccc2c(c1)N(Cc1c(F)cccc1Cl)C(=O)C[S+]2[O-] (centres unmarked) [Example 245, 4-(2-chloro-6-fluorobenzyl)-N-(furan-2-ylmethyl)-3-oxo-3,4-dihydro-2H-benzo[b][1,4]thiazine-6-carboxamide 1-oxide]
> 10 µM	O=C(NCc1ccco1)c1ccc2c(c1)N(Cc1ccccc1)CCS2 [Example 246, 4-Benzyl-N-(furan-2-ylmethyl)-3,4-dihydro-2H-benzo[b-1,4]thiazine-6-carboxamide]
> 10 µM	O=C(NCc1ccco1)c1ccc2c(c1)N(Cc1ccccc1F)CCS2 [Example 247, 4-(2-fluorobenzyl)-N-(furan-2-ylmethyl)-3,4-dihydro-2H-benzo[b-1,4]thiazine-6-carboxamide]
1 to 10 µM	O=C(NCC1CCCCC1)c1ccc2c(c1)N(C(=O)c1c(F)cccc1Cl)CCS2 [Example 257, 4-(2-chloro-6-fluorobenzoyl)-N-(cyclohexylmethyl)-3,4-dihydro-2H-benzo[b][1,4]thiazine-6-carboxamide]
1 to 10 µM	O=C(NCc1c(F)cc(F)cc1F)c1ccc2c(c1)N(S(=O)(=O)c1ccccc1)CCS2 [Example 261, 4-(Phenylsulfonyl)-N-(2,4,6-trifluorobenzyl)-3,4-dihydro-2H-benzo[b-1,4]thiazine-6-carboxamide]
1 to 10 µM	O=C(NCc1c(F)cc(F)cc1F)c1cnc2c(c1)N(Cc1cc(F)cc(F)c1)C(=O)CC2 [Example 276, 5-(3,5-Difluorobenzyl)-6-oxo-N-(2,4,6-trifluorobenzyl)-5,6,7,8-tetrahydro-1,5-naphthyridine-3-carboxamide]
1 to 10 µM	O=C(NCc1ccc(F)cc1F)c1cnc2c(c1)N(Cc1cc(F)cc(F)c1)C(=O)CC2 [Example 277, N-(2,4-difluorobenzyl)-5-(3,5-difluorobenzyl)-6-oxo-5,6,7,8-tetrahydro-1,5-naphthyridine-3-carboxamide]
